Test results as given in patent US12012403B2, “Aryl sulfonyl compounds as CCR6 inhibitors” (CHEMOCENTRYX, INC., priority 2021, dated 2024).

Target: T1, human CCR6 (Homo sapiens, UniProt P51684)
T1 construct: expressed in transfected cells; host or cells: Ba/F3 cells (murine pro-B line), hCCR6-transfected, CMV promoter, sodium butyrate induction
T1 sequence (P51684 1-374): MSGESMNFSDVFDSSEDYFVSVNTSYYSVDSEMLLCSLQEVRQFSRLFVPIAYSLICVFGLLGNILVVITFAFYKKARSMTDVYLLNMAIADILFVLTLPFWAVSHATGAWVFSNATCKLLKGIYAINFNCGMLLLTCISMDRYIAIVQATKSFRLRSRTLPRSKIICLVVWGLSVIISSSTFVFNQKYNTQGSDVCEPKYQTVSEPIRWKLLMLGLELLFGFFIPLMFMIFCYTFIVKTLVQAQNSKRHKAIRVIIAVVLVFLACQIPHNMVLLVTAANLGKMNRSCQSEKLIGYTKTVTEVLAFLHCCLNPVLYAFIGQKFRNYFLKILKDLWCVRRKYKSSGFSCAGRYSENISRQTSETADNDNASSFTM
Assay: Migration (chemotaxis) assay, hCCR6-transfected Ba/F3 cells toward CCL20
Assay type: cell-based
Details: hCCR6-transfected Ba/F3 cells in human serum; recombinant human CCL20 10 nM; 37° C. 45 minutes; read-out: Potency (IC50 value in the migration assay)
Excerpt: A chemotaxis assay can be used to determine the efficacy of potential receptor antagonists at blocking the migration mediated through chemokine receptors, such as CCR6. This assay is routinely performed using the ChemoTX® microchamber system with a 5-μm pore-sized polycarbonate membrane. Chemokine receptor-expressing cells are required for such an assay. In this case, Ba/F3 cells (Palacios et al., Nature, 309:126, 1984) transfected with the gene for human CCR6 under control of the CMV promotor were used. To begin such an assay, hCCR6-transfected Ba/F3 cells are first grown for 24 hr in medium supplemented with sodium butyrate, which increases CCR6 transcription via the CMV promotor. The prepared Ba/F3 cells, are collected by centrifugation at 400×g at room temperature, then suspended at 4 million/ml in human serum. The compound being tested is serially diluted from a maximum final concentration of 10 μM (or an equivalent volume of its solvent (DMSO)) and is then added to the cell/serum mixture. Separately, recombinant human CCL20 (MIP-3α/LARC) at its EC50 concentration (10 nM) is placed in the lower wells of the ChemoTX® plate. The 5-μm (pore size) polycarbonate membrane is placed onto the plate, and 20 μL of the cell/compound mixture is transferred onto each well of the membrane. The plates are incubated at 37° C. for 45 minutes, after which the polycarbonate membranes are removed and 5 μl of the DNA-intercalating dye CyQUANT (Invitrogen, Carlsbad, CA) is added to the lower wells. The amount of fluorescence, corresponding to the number of migrated cells, is measured using a Spectrafluor Plus plate reader (TECAN, San Jose, CA).

IC50 | SMILES
5 to 100 nM | CNC(=O)CC1CCN(c2ccc(S(=O)(=O)N3CCC(Nc4ccc(C(F)(F)F)cn4)CC3)cc2)CC1 [Example 1.135]
5 to 100 nM | CC1(CC(N)=O)CCN(c2ccc(S(=O)(=O)N3CCC(Nc4ccc(C(F)(F)F)cn4)CC3)cc2)CC1 [Example 1.136]
100 to 10000 nM | NC(=O)C1CC12CCN(c1ccc(S(=O)(=O)N3CCC(Nc4ccc(C(F)(F)F)cn4)CC3)cc1)CC2 (centres unmarked) [Example 1.137]
100 to 10000 nM | NC(=O)CC1CCCN(c2ccc(S(=O)(=O)N3CCC(Nc4ccc(C(F)(F)F)cn4)CC3)cc2)C1 (centres unmarked) [Example 1.138]
100 to 10000 nM | O=C1CNC(=O)C2(CCN(c3ccc(S(=O)(=O)N4CCC(Nc5ccc(C(F)(F)F)cn5)CC4)cc3)CC2)N1 [Example 1.139]
5 to 100 nM | CC(=O)NCC1CCN(c2ccc(S(=O)(=O)N3CCC(Nc4ccc(C(F)(F)F)cn4)CC3)cc2)CC1 [Example 1.140]
5 to 100 nM | CS(=O)(=O)NCC1CCN(c2ccc(S(=O)(=O)N3CCC(Nc4ccc(C(F)(F)F)cn4)CC3)cc2)CC1 [Example 1.141]
5 to 100 nM | NC(=O)N1CCC12CN(c1ccc(S(=O)(=O)N3CCC(Nc4ccc(C(F)(F)F)cn4)CC3)cc1)C2 [Example 1.142]
5 to 100 nM | CC(C)(C)OC(=O)NCC1CN(c2ccc(S(=O)(=O)N3CCC(Nc4ccc(C(F)(F)F)cn4)CC3)cc2)C1 [Example 1.143]
100 to 10000 nM | NC(=O)CC1CN(c2ccc(S(=O)(=O)N3CCC(Nc4ccc(C(F)(F)F)cn4)CC3)cc2)C1 [Example 1.144]
5 to 100 nM | NC(=O)N1CC(C2CN(c3ccc(S(=O)(=O)N4CCC(Nc5ccc(C(F)(F)F)cn5)CC4)cc3)C2)C1 [Example 1.145]
< 5 nM | NC(=O)NCC1CCN(c2ccc(S(=O)(=O)N3CCC(Nc4ccc(C(F)(F)F)cn4)CC3)cc2)CC1 [Example 1.146]
5 to 100 nM | O=C1COC2(CCN(c3ccc(S(=O)(=O)N4CCC(Nc5ccc(C(F)(F)F)cn5)CC4)cc3)CC2)CN1 [Example 1.147]
< 5 nM | O=C1NC2(CCN(c3ccc(S(=O)(=O)N4CCC(Nc5ccc(C(F)(F)F)cn5)CC4)cc3)CC2)CO1 [Example 1.148]
5 to 100 nM | O=C1CC2(CCN(c3ccc(S(=O)(=O)N4CCC(Nc5ccc(C(F)(F)F)cn5)CC4)cc3)CC2)C(=O)N1 [Example 1.149]
5 to 100 nM | O=C1NCC2(CCN(c3ccc(S(=O)(=O)N4CCC(Nc5ccc(C(F)(F)F)cn5)CC4)cc3)CC2)N1 [Example 1.150]

IC50 | SMILES
< 5 nM | O=C1NC(=O)C2(CCN(c3ccc(S(=O)(=O)N4CCC(Nc5ccc(C(F)(F)F)cn5)CC4)cc3)CC2)N1 [Example 1.151]
< 5 nM | O=C1CC2(CCN(c3ccc(S(=O)(=O)N4CCC(Nc5ccc(C(F)(F)F)cn5)CC4)cc3)CC2)CC(=O)N1 [Example 1.152]
5 to 100 nM | O=C1NCCC12CCN(c1ccc(S(=O)(=O)N3CCC(Nc4ccc(C(F)(F)F)cn4)CC3)cc1)CC2 [Example 1.153]
< 5 nM | NC(=O)N1CC2(C1)CN(c1ccc(S(=O)(=O)N3CCC(Nc4ccc(C(F)(F)F)cn4)CC3)cc1)C2 [Example 1.154]
< 5 nM | NC(=O)CC1CCN(c2ccc(S(=O)(=O)N3CCC(Nc4ccc(C(F)(F)F)cn4)CC3)cc2)CC1 [Example 1.155]
5 to 100 nM | O=S(=O)(c1ccc(N2CCC(O)CC2)cc1)N1CCC(Nc2ccc(C(F)(F)F)cn2)CC1 [Example 1.156]
5 to 100 nM | CN1CCC2(CCN(c3ccc(S(=O)(=O)N4CCC(Nc5ccc(C(F)(F)F)cn5)CC4)cc3)CC2)C1=O [Example 1.157]
5 to 100 nM | O=S(=O)(c1ccc(N2CCC3(CC2)CC(O)C3)cc1)N1CCC(Nc2ccc(C(F)(F)F)cn2)CC1 [Example 1.158]
100 to 10000 nM | NC(=O)NC1CC2(C1)CN(c1ccc(S(=O)(=O)N3CCC(Nc4ccc(C(F)(F)F)cn4)CC3)cc1)C2 [Example 1.159]
5 to 100 nM | CS(=O)(=O)NC1CC2(C1)CN(c1ccc(S(=O)(=O)N3CCC(Nc4ccc(C(F)(F)F)cn4)CC3)cc1)C2 [Example 1.161]
100 to 10000 nM | NC(=O)[C@H]1[C@@H]2CN(c3ccc(S(=O)(=O)N4CCC(Nc5ccc(C(F)(F)F)cn5)CC4)cc3)C[C@@H]21 [Example 1.162]
5 to 100 nM | CC(=O)NC1CC2(C1)CN(c1ccc(S(=O)(=O)N3CCC(Nc4ccc(C(F)(F)F)cn4)CC3)cc1)C2 [Example 1.163]
100 to 10000 nM | CC(=O)NCC(=O)N1CCN(c2ccc(S(=O)(=O)N3CCC(Nc4ccc(C(F)(F)F)cn4)CC3)cc2)CC1 [Example 1.164]
< 5 nM | O=C1NCCCC12CCN(c1ccc(S(=O)(=O)N3CCC(Nc4ccc(C(F)(F)F)cn4)CC3)cc1)CC2 [Example 1.165]
5 to 100 nM | NC(=O)C1(O)CCN(c2ccc(S(=O)(=O)N3CCC(Nc4ccc(C(F)(F)F)cn4)CC3)cc2)CC1 [Example 1.166]

Further lines, the compound ahead of its results:

SMILES | IC50
O=S(=O)(c1ccc(-c2ccc3[nH]nnc3c2)cc1)N1CCC(Nc2ccc(C(F)(F)F)cn2)CC1 [Example 1.109] | 100 to 10000 nM
O=S(=O)(c1ccc(-c2ccc3[nH]cnc3c2)cc1)N1CCC(Nc2ccc(C(F)(F)F)cn2)CC1 [Example 1.110] | < 5 nM
Nc1n[nH]c2ccc(-c3ccc(S(=O)(=O)N4CCC(Nc5ccc(C(F)(F)F)cn5)CC4)cc3)cc12 [Example 1.112] | < 5 nM
N#Cc1cc2cc(-c3ccc(S(=O)(=O)N4CCC(Nc5ccc(C(F)(F)F)cn5)CC4)cc3)ccc2[nH]1 [Example 1.113] | 5 to 100 nM
N#Cc1c[nH]c2ccc(-c3ccc(S(=O)(=O)N4CCC(Nc5ccc(C(F)(F)F)cn5)CC4)cc3)cc12 [Example 1.114] | < 5 nM
O=c1[nH]c2ccc(-c3ccc(S(=O)(=O)N4CCC(Nc5ccc(C(F)(F)F)cn5)CC4)cc3)cc2[nH]1 [Example 1.115] | 5 to 100 nM
N=[S@](=O)(c1ccc(-c2ccc3oc(N)nc3c2)cc1)N1CCC(Nc2ccc(C(F)(F)F)cn2)CC1 [Example 1.116] | 5 to 100 nM
O=C1NCc2cc(-c3ccc(S(=O)(=O)N4CCC(Nc5ccc(C(F)(F)F)cn5)CC4)cc3)ccc21 [Example 1.117] | < 5 nM
Nc1nc2cc(-c3ccc(S(=O)(=O)N4CCC(Nc5ccc(C(F)(F)F)cn5)CC4)cc3)ccc2o1 [Example 1.118] | < 5 nM
O=S(=O)(c1ccc(-c2ccc3[nH]ccc3c2)cc1)N1CCC(Nc2ccc(C(F)(F)F)cn2)CC1 [Example 1.119] | 100 to 10000 nM
O=S(=O)(c1ccc(-c2ccc3c(c2)CCC3)cc1)N1CCC(Nc2ccc(C(F)(F)F)cn2)CC1 [Example 1.120] | 100 to 10000 nM
NC(=O)C1CC2(C1)CN(c1ccc(S(=O)(=O)N3CCC(Nc4ccc(C(F)(F)F)cn4)CC3)cc1)C2 [Example 1.121] | 5 to 100 nM
NC(=O)CN1CCN(c2ccc(S(=O)(=O)N3CCC(Nc4ccc(C(F)(F)F)cn4)CC3)cc2)CC1 [Example 1.122] | 5 to 100 nM
CC(C)(C(N)=O)C1CCN(c2ccc(S(=O)(=O)N3CCC(Nc4ccc(C(F)(F)F)cn4)CC3)cc2)CC1 [Example 1.123] | 5 to 100 nM
NC(=O)C1(C2CCN(c3ccc(S(=O)(=O)N4CCC(Nc5ccc(C(F)(F)F)cn5)CC4)cc3)CC2)CC1 [Example 1.124] | 5 to 100 nM
NC(=O)NCCC1CCN(c2ccc(S(=O)(=O)N3CCC(Nc4ccc(C(F)(F)F)cn4)CC3)cc2)CC1 [Example 1.125] | 5 to 100 nM
CC(=O)NCCC1CCN(c2ccc(S(=O)(=O)N3CCC(Nc4ccc(C(F)(F)F)cn4)CC3)cc2)CC1 [Example 1.126] | 5 to 100 nM
CS(=O)(=O)NCCC1CCN(c2ccc(S(=O)(=O)N3CCC(Nc4ccc(C(F)(F)F)cn4)CC3)cc2)CC1 [Example 1.127] | 5 to 100 nM
O=S(=O)(c1ccc(N2CCC(c3nnn[nH]3)CC2)cc1)N1CCC(Nc2ccc(C(F)(F)F)cn2)CC1 [Example 1.128] | 100 to 10000 nM
O=S(=O)(c1ccc(N2CCOCC2)cc1)N1CCC(Nc2ccc(C(F)(F)F)cn2)CC1 [Example 1.129] | 5 to 100 nM
O=S(=O)(c1ccc(N2CCC(c3cnc[nH]3)CC2)cc1)N1CCC(Nc2ccc(C(F)(F)F)cn2)CC1 [Example 1.130] | 100 to 10000 nM
O=S(=O)(c1ccc(N2CCC(Cc3ncc[nH]3)CC2)cc1)N1CCC(Nc2ccc(C(F)(F)F)cn2)CC1 [Example 1.131] | 100 to 10000 nM
NCCC1CCN(c2ccc(S(=O)(=O)N3CCC(Nc4ccc(C(F)(F)F)cn4)CC3)cc2)CC1 [Example 1.132] | 100 to 10000 nM
O=C(CC1CCN(c2ccc(S(=O)(=O)N3CCC(Nc4ccc(C(F)(F)F)cn4)CC3)cc2)CC1)NCCO [Example 1.133] | 100 to 10000 nM
CN(C)C(=O)CC1CCN(c2ccc(S(=O)(=O)N3CCC(Nc4ccc(C(F)(F)F)cn4)CC3)cc2)CC1 [Example 1.134] | 100 to 10000 nM
